US20240150377A1, “MODULATORS OF CYSTIC FIBROSIS TRANSMEMBRANE CONDUCTANCE REGULATOR” (VERTEX PHARMACEUTICALS INCORPORATED, priority 2020, published 2024)
Read-outs that look alike come from different tables or passages of the source.

Target: T1, CFTR (Homo sapiens, UniProt P13569, DEL508-508)
T1 construct: endogenous in cells; host or cells: primary human bronchial epithelial cells from CF subjects (F508del/MF-HBE), differentiated at air-liquid interface
Experiment: HBE assay: Ussing chamber assay of CFTR-mediated short-circuit currents
Type: cell-based
Settings: for activation at 10 µM: read-out: HBE Activity at 10 μM (%); for EC50: read-out: HBE EC50
Summary of the method: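 CFTR-mediated Isc (μA/cm²) equals the peak response to apical 20 μM forskolin minus the residual after a 20 μM each BPO/GlyH-101/CFTR inhibitor 172 cocktail, recorded in Ussing chambers at Vhold 0 mV, 37 °C, pH 7.4, with 30 μM apical amiloride. Cells were F508del/MF HBE cultures preincubated 18-24 h with corrector (concentration range or 10 μM) plus 1 μM ivacaftor in 20% human serum.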

[1] = Table 12, read-out: HBE Max Activity (%)
[2] = Table 13, read-out: HBE Max Activity (%)
[3] = Table 11, read-out: HBE Max Activity (%)
[4] = Table 10, read-out: HBE Max activity (%)

T1 sequence (P13569 with tags, fused parts or gaps DEL508-508): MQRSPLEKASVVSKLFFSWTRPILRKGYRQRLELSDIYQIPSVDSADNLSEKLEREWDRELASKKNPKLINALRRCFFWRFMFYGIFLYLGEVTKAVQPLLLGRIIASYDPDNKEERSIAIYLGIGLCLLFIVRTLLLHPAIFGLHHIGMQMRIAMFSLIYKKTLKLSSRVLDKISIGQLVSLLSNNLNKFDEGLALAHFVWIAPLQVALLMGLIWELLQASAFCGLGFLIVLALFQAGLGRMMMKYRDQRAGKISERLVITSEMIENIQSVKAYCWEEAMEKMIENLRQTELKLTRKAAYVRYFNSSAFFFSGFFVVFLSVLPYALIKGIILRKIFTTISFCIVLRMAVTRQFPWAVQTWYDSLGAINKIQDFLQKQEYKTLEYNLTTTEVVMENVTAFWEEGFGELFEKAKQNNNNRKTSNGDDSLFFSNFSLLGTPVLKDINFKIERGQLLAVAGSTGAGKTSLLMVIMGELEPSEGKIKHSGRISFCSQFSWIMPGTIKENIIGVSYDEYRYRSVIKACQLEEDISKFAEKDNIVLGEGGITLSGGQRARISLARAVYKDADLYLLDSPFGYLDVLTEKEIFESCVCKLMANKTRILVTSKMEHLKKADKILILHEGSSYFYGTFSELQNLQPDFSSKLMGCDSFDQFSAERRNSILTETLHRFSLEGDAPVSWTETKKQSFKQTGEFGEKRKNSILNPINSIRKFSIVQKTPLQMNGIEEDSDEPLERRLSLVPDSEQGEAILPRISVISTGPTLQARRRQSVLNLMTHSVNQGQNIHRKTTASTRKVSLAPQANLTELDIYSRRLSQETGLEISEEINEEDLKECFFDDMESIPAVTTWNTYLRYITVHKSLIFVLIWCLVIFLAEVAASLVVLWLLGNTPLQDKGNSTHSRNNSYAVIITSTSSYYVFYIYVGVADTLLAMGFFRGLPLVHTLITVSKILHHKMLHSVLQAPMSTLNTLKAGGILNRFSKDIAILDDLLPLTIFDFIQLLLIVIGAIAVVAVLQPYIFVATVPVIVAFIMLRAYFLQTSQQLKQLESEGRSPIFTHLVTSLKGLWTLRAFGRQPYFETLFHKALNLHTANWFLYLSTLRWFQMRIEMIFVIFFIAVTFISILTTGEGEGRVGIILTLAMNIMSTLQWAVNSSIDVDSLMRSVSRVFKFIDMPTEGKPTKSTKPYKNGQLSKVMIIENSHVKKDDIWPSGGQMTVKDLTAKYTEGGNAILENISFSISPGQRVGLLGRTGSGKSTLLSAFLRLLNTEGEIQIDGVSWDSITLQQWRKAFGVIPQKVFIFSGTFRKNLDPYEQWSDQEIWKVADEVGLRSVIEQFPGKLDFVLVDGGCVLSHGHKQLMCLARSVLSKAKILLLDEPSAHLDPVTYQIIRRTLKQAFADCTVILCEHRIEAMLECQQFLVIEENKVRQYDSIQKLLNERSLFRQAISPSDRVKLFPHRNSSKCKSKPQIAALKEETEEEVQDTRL

Row | SMILES | EC50 (Table 13) [nM] | Emax [2] [%] | further results
1 | Cc1cccc(C)c1-c1cc2nc(n1)NS(=O)(=O)c1cccc(c1)C(=O)N(CC1(NC(=O)OC(C)(C)C)CC3(CCC3)C1)[C@H](CC(C)(C)C)CO2 [Compound 999] |  |  | activation at 10 µM (Table 13): > 600%
2 | Cc1cccc(C)c1-c1cc2nc(n1)NS(=O)(=O)c1cccc(c1)C(=O)N(CC1CC3(C1)CC(N(C)C)C3)[C@H](CC(C)(C)C)CO2 (some centres unmarked) [Compound 1000] |  |  | activation at 10 µM (Table 13): > 600%
3 | COC(=O)NC1CC2(CC(CN3C(=O)c4cccc(c4)S(=O)(=O)Nc4nc(cc(-c5c(C)cccc5C)n4)OC[C@H]3CC(C)(C)C)C2)C1 (some centres unmarked) [Compound 1001] |  |  | activation at 10 µM (Table 13): > 600%
4 | Cc1cccc(C)c1-c1cc2nc(n1)NS(=O)(=O)c1cccc(c1)C(=O)N(CC1CC3(C1)CC(NC(=O)OC1CC1)C3)[C@H](CC(C)(C)C)CO2 (some centres unmarked) [Compound 1002] |  |  | activation at 10 µM (Table 13): > 600%
5 | Cc1cccc(C)c1-c1cc2nc(n1)NS(=O)(=O)c1cccc(c1)C(=O)N(CC1CC3(C1)CC(NC(=O)OC(C)C)C3)[C@H](CC(C)(C)C)CO2 (some centres unmarked) [Compound 1003] |  |  | activation at 10 µM (Table 13): > 600%
6 | Cc1cccc(C)c1-c1cc2nc(n1)NS(=O)(=O)c1cccc(c1)C(=O)N(CC1CC3(C1)CC(NC(=O)OC(C)(C)C)C3)[C@H](CC(C)C)CO2 (some centres unmarked) [Compound 1004] |  |  | activation at 10 µM (Table 12): > 600%
7 | Cc1cccc(C)c1-c1cc2nc(n1)NS(=O)(=O)c1cccc(c1)C(=O)N(C[C@H]1C[C@@H](NC(=O)OC(C)C)C1)[C@H](CC(C)(C)C)CO2 [Compound 1005] |  |  | EC50 (Table 12): < 1000 nM; Emax [1]: > 60%
8 | Cc1cccc(C)c1-c1cc2nc(n1)NS(=O)(=O)c1cccc(c1)C(=O)N(C[C@H]1C[C@@H](NC(=O)OC(C)C)C1)[C@H](CC(C)(C)C)CO2 [Compound 1006] |  |  | activation at 10 µM (Table 12): > 600%
9 | Cc1cccc(C)c1-c1cc2nc(n1)NS(=O)(=O)c1cccc(c1)C(=O)N(CC1CC(C)(C)C1)[C@H](CC(C)(C)C)CO2 [Compound 1007] |  |  | activation at 10 µM (Table 12): > 600%
10 | Cc1cccc(C)c1-c1cc2nc(n1)NS(=O)(=O)c1cccc(c1)C(=O)N(Cc1ncc(N(C)C)c(C)n1)[C@H](CC(C)(C)C)CO2 [Compound 1008] |  |  | activation at 10 µM (Table 12): > 600%
11 | Cc1cc(C)nc(CN2C(=O)c3cccc(c3)S(=O)(=O)Nc3nc(cc(-c4c(C)cccc4C)n3)OC[C@H]2CC(C)(C)C)n1 [Compound 1009] |  |  | EC50 (Table 12): < 1000 nM; Emax [1]: > 60%
12 | Cc1cccc(C)c1-c1cc2nc(n1)NS(=O)(=O)c1cccc(c1)C(=O)N(Cc1ncc(N3CC4(CCOC4)C3)cn1)[C@H](CC(C)(C)C)CO2 [Compound 1054] | < 1000 | > 60 | 
13 | Cc1cccc(C)c1-c1cc2nc(n1)NS(=O)(=O)c1cccc(c1)C(=O)N(Cc1ccc(N3CC4(CCOC4)C3)cn1)[C@H](CC(C)(C)C)CO2 [Compound 1055] |  |  | activation at 10 µM (Table 13): > 600%
14 | Cc1cccc(C)c1-c1cc2nc(n1)NS(=O)(=O)c1cccc(c1)C(=O)N(Cc1ccc(N3CC4(CC(=O)C4)C3)cn1)[C@H](CC(C)(C)C)CO2 [Compound 1056] | 1000 to 3000 | > 60 | 
15 | Cc1cccc(C)c1-c1cc2nc(n1)NS(=O)(=O)c1cccc(c1)C(=O)N(Cc1ccc(C3CC4(C3)CC(C)(C)C4)cn1)[C@H](CC(C)(C)C)CO2 [Compound 1057] |  |  | activation at 10 µM (Table 13): > 600%
16 | Cc1cccc(C)c1-c1cc2nc(n1)NS(=O)(=O)c1cccc(c1)C(=O)N(Cc1ccc(N3CC4(CCCO4)C3)cn1)[C@H](CC(C)(C)C)CO2 [Compound 1058] | < 1000 | > 60 | 
17 | COC1(C)CCN(c2ccc(CN3C(=O)c4cccc(c4)S(=O)(=O)Nc4nc(cc(-c5c(C)cccc5C)n4)OC[C@H]3CC(C)(C)C)nc2)CC1 [Compound 1059] | < 1000 | > 60 | 
18 | Cc1cccc(C)c1-c1cc2nc(n1)NS(=O)(=O)c1cccc(c1)C(=O)N(Cc1ccc(N3CC4(CCOCC4)C3)cn1)[C@H](CC(C)(C)C)CO2 [Compound 1060] | < 1000 | > 60 | 
19 | Cc1cccc(C)c1-c1cc2nc(n1)NS(=O)(=O)c1cccc(c1)C(=O)N(Cc1ccc(C3COC(C)(C)C3)cn1)[C@H](CC(C)(C)C)CO2 (some centres unmarked) [Compound 1062] |  |  | activation at 10 µM (Table 13): > 600%
20 | Cc1cccc(C)c1-c1cc2nc(n1)NS(=O)(=O)c1cccc(c1)C(=O)N(Cc1ccc(N3CC4(COC4)C3)cn1)[C@H](CC(C)(C)C)CO2 [Compound 1063] | < 1000 | > 60 | 
21 | Cc1cccc(C(C)C)c1-c1cc2nc(n1)NS(=O)(=O)c1cccc(c1)C(=O)N(Cc1cnc(C3CCOCC3)cn1)[C@H](CC(C)(C)C)CO2 [Compound 1064] |  |  | EC50 (Table 12): < 1000 nM; Emax [1]: > 60%
22 | Cc1cccc(C)c1-c1cc2nc(n1)NS(=O)(=O)c1cccc(c1)C(=O)C(Cc1ccc(C3CCCOC3)cn1)[C@H](CC(C)(C)C)CO2 (some centres unmarked) [Compound 1065] |  |  | EC50 (Table 12): < 1000 nM; Emax [1]: > 60%
23 | COc1ccc(F)c(CN2C(=O)c3cccc(c3)S(=O)(=O)Nc3nc(cc(-c4c(C)cccc4C)n3)OC[C@H]2CC(C)(C)C)n1 [Compound 1066] | < 1000 | > 60 | 

Row | SMILES | EC50 (Table 13) [nM] | Emax [2] [%] | further results
24 | COc1cnc(CN2C(=O)c3cccc(c3)S(=O)(=O)Nc3nc(cc(-c4c(C)cccc4C)n3)OC[C@H]2CC(C)(C)C)c(Cl)c1 [Compound 1067] | < 1000 | > 60 | 
25 | Cc1cccc(C)c1-c1cc2nc(n1)NS(=O)(=O)c1cccc(c1)C(=O)N(Cc1ncccc1F)[C@H](CC(C)(C)C)CO2 [Compound 1068] | < 1000 | > 60 | 
26 | Cc1cncc(CN2C(=O)c3cccc(c3)S(=O)(=O)Nc3nc(cc(-c4c(C)cccc4C)n3)OC[C@H]2CC(C)(C)C)n1 [Compound 1069] |  |  | EC50 (Table 11): < 1000 nM; Emax [3]: > 60%
27 | Cc1ccnc(CN2C(=O)c3cccc(c3)S(=O)(=O)Nc3nc(cc(-c4c(C)cccc4C)n3)OC[C@H]2CC(C)(C)C)c1 [Compound 1070] |  |  | EC50 (Table 11): < 1000 nM; Emax [3]: > 60%
28 | Cc1cccc(C)c1-c1cc2nc(n1)NS(=O)(=O)c1cccc(c1)C(=O)N(Cc1cc(C3CC3)on1)[C@H](CC(C)(C)C)CO2 [Compound 1071] |  |  | EC50 (Table 11): < 1000 nM; Emax [3]: > 60%
29 | Cc1cccc(C)c1-c1cc2nc(n1)NS(=O)(=O)c1cccc(c1)C(=O)N(Cc1ncc(N(C)C)cn1)[C@H](CC(C)(C)C)CO2 [Compound 1072] |  |  | Emax [4]: > 60%
30 | Cc1cccc(C)c1-c1cc2nc(n1)NS(=O)(=O)c1cccc(c1)C(=O)N(Cc1ccc(C(C)(C)C)nc1)[C@H](CC(C)(C)C)CO2 [Compound 1074] |  |  | Emax [4]: > 60%
31 | Cc1ccc2ccccc2c1-c1cc2nc(n1)NS(=O)(=O)c1cccc(c1)C(=O)N(Cc1ccc(N3CCOCC3)cn1)[C@H](CC(C)(C)C)CO2 [Compound 1075] |  |  | EC50 (Table 10): < 1000 nM; Emax [4]: > 60%
32 | Cc1cccc(C)c1-c1cc2nc(n1)NS(=O)(=O)c1cccc(c1)C(=O)N(Cc1ncc(Cl)cc1F)[C@H](CC(C)(C)C)CO2 [Compound 1111] | < 1000 | > 60 | 
33 | COc1cnc(CN2C(=O)c3cccc(c3)S(=O)(=O)Nc3nc(cc(-c4c(C)cccc4C)n3)OC[C@H]2CC(C)(C)C)c(F)c1 [Compound 1112] | < 1000 | > 60 | 
34 | Cc1ccc(F)c(CN2C(=O)c3cccc(c3)S(=O)(=O)Nc3nc(cc(-c4c(C)cccc4C)n3)OC[C@H]2CC(C)(C)C)n1 [Compound 1113] | < 1000 | > 60 | 
35 | Cc1cccc(C)c1-c1cc2nc(n1)NS(=O)(=O)c1cccc(c1)C(=O)N(Cc1cc(OC(C)C)ccn1)[C@H](CC(C)(C)C)CO2 [Compound 1114] |  |  | activation at 10 µM (Table 13): > 600%
36 | Cc1cccc(C)c1-c1cc2nc(n1)NS(=O)(=O)c1cccc(c1)C(=O)N(CC1(C(=O)NC3CCCCC3)CC1)[C@H](CC(C)(C)C)CO2 [Compound 1115] |  |  | activation at 10 µM (Table 13): > 600%
37 | Cc1cc(OC(C)C)cnc1CN1C(=O)c2cccc(c2)S(=O)(=O)Nc2nc(cc(-c3c(C)cccc3C)n2)OC[C@H]1CC(C)(C)C [Compound 1116] | < 1000 | > 60 | 
38 | COc1cc(OC(C)C)cnc1CN1C(=O)c2cccc(c2)S(=O)(=O)Nc2nc(cc(-c3c(C)cccc3C)n2)OC[C@H]1CC(C)(C)C [Compound 1117] | < 1000 | > 60 | 
39 | Cc1cccc(C)c1-c1cc2nc(n1)NS(=O)(=O)c1cccc(c1)C(=O)N(Cc1ncc(N3CCC(C)(C)C3)cc1C(F)(F)F)[C@H](CC(C)(C)C)CO2 [Compound 1118] | < 1000 | > 60 | 
40 | Cc1cccc(C)c1-c1cc2nc(n1)NS(=O)(=O)c1cccc(c1)C(=O)N(Cc1ncc(Br)cc1C(F)(F)F)[C@H](CC(C)(C)C)CO2 [Compound 1119] |  |  | activation at 10 µM (Table 13): > 600%
41 | Cc1cccc(C)c1-c1cc2nc(n1)NS(=O)(=O)c1cccc(c1)C(=O)N(Cc1ncc(OC(C)C)cn1)[C@H](CC1(C(F)(F)F)CC1)CO2 [Compound 1120] | < 1000 | > 60 | 
42 | Cc1cccc(C)c1-c1cc2nc(n1)NS(=O)(=O)c1cccc(c1)C(=O)N(Cc1ncc(OC(C)C)cn1)[C@H](CC(C)(C)C(F)(F)F)CO2 [Compound 1121] | < 1000 | > 60 | 
43 | Cc1cccc(C)c1-c1cc2nc(n1)NS(=O)(=O)c1cccc(c1)C(=O)N(Cc1cccc(N3CCCC3C(C)(C)O)n1)[C@H](CC(C)(C)C)CO2 (some centres unmarked) [Compound 1123] |  |  | activation at 10 µM (Table 13): > 600%
44 | Cc1cccc(C)c1-c1cc2nc(n1)NS(=O)(=O)c1cccc(c1)C(=O)N(Cc1nc3c(ccn3C(C)C)cc1F)[C@H](CC(C)(C)C)CO2 [Compound 1124] | < 1000 | > 60 | 
45 | Cc1cccc(C)c1-c1cc2nc(n1)NS(=O)(=O)c1cccc(n1)C(=O)N(Cc1ccc(N(C)CC(C)(C)C)cn1)[C@H](CC(C)(C)C)CO2 [Compound 1125] | 1000 to 3000 | > 60 | 
46 | Cc1cccc(C)c1-c1cc2nc(n1)NS(=O)(=O)c1cccc(n1)C(=O)N(Cc1cncc(N(C)CC(C)(C)C)n1)[C@H](CC(C)(C)C)CO2 [Compound 1126] | < 1000 | > 60 | 
